Where two headings read alike, the source gives them in different places. Ends that are not written are not given here.
Experiments:
[1] = system: human pancreatic ductal epithelial cells (HPNE); experiment: Cell viability assessment (CCK-8), HPNE; conditions: CCK-8, mean of Data1-3 (n = 3)
Method: (§1) The cytotoxicity of 73 synthetic peptides was evaluated using four human cell lines: human pancreatic ductal epithelial cells (HPNE), human embryonic kidney cells (HEK293T), human umbilical vein endothelial cells (HUVEC), and human bronchial epithelial cells (BEAS-2B). When cell density reached 70% confluence, the complete culture medium was replaced with serum-free maintenance medium, and peptides were added at a final concentration of 100 μM for 36 h. Control groups received only serum-free maintenance medium without peptides. Cell proliferation was assessed using the CCK-8 assay kit (Solarbio, CA1210) according to the manufacturer’s instructions.

[2] = Electronic tongue analysis (Taste-Sensing System SA 402B); parameters: unit not given here; conditions: reference solution 30 mM KCl + 0.3 mM tartaric acid as baseline, first measurement excluded; for Umami: sensor AAE; for Umami / Bitter / Sweet: detection threshold 0, room temperature; for Umami / Bitter / Sour / Salty: four replicates; for Sour: detection threshold -13, room temperature; for Salty: detection threshold -6, room temperature; for Sweet: measured five times
How it was run: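 Room-temperature electronic-tongue readings with five taste probes, calibrated against a reference of 30 mM KCl and 0.3 mM tartaric acid. Samples at 0.1 mg/mL and 1.0 mg/mL were measured four times, sweetness five times, and the first run was dropped. Detection cut-offs were sour −13, salty −6, others 0.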

[3] = system: human embryonic kidney cells (HEK293T); experiment: Cell viability assessment (CCK-8), HEK293T; conditions: CCK-8, mean of Data1-3 (n = 3)
[4] = system: red blood cells from 6-week-old BALB/c mice (mRBCs); experiment: Hemolysis assay; type: cell-based, mouse; conditions: mean of Data1-3; 100 μM peptide, 1.5 × 10^8 cells/mL mRBCs, 37°C, 60 min, absorbance 490 nm; PBS 0% and 1% Triton X-100 100% controls
Method: The hemolytic activity of synthetic peptides was evaluated using red blood cells from 6-week-old BALB/c mice (mRBCs). Freshly isolated mRBCs were washed three times with PBS buffer (8000 rpm, 2 min per wash) to prepare the mRBC suspension. Equal volumes (70 μL) of 200 μM peptide solutions and mRBC suspension were mixed to achieve final concentrations of 100 μM peptide and 1.5 × 10^8 cells/mL mRBCs in the reaction system. After incubation with shaking at 37°C for 60 min, samples were centrifuged at 10000 rpm for 5 min, and hemoglobin release was assessed by measuring the absorbance of the supernatant at 490 nm. PBS and 1% Triton X-100 treatments served as 0% and 100% hemolysis controls, respectively. A complete dataset of hemolytic activity measurements is documented in S4 Data.

[5] = system: human umbilical vein endothelial cells (HUVEC); experiment: Cell viability assessment (CCK-8), HUVEC; conditions: CCK-8, mean of Data1-3 (n = 3)
[6] = system: human bronchial epithelial cells (BEAS-2B); experiment: Cell viability assessment (CCK-8), BEAS-2B; conditions: BEAS-2B cells, CCK-8, mean of Data1-3 (n = 3)
Method: as §1

[7] = system: human umbilical vein endothelial cells (HUVEC)
[8] = system: human embryonic kidney cells (HEK293T)
[9] = system: human pancreatic ductal epithelial cells (HPNE)
Method: as §1

[10] = system: human bronchial epithelial cells (BEAS-2B)
Method: as §1

[11] = known from earlier studies; cited from earlier work
Excerpt: To address these experimental challenges, various computational and artificial intelligence-based approaches for taste peptide identification have emerged. Most reported methods focus on predicting single taste properties, such as BERT4Bitter and iBitter-SCM [42] for bitter peptide identification, while iUmami-SCM [43], Umami-MRNN [[44], iUmami-DRLF [45], and Umami-gcForest are dedicated to umami peptide prediction. Additionally, a few models like Umami_YYDS [35] have been reported to perform binary classification for umami and bitter tastes. However, current methodologie ...

| Substance | Umami ([2]; peptide 0.1 mg/mL) | Umami ([2]; peptide 1 mg/mL) | Bitter ([2]; sensor C00, peptide 0.1 mg/mL) | Bitter ([2]; sensor C00, peptide 1 mg/mL) | Sour ([2]; sensor CA0, peptide 0.1 mg/mL) | Sour ([2]; sensor CA0, peptide 1 mg/mL) | Salty ([2]; sensor CT0, peptide 0.1 mg/mL) | Salty ([2]; sensor CT0, peptide 1 mg/mL) | Sweet ([2]; sensor GL1, peptide 0.1 mg/mL) | Sweet ([2]; sensor GL1, peptide 1 mg/mL) | Average hemolysis [4] [%] | Average cell viability, HUVEC [7] | Cell viability, HUVEC, Data1 [7] | Cell viability, HUVEC, Data2 [7] | Cell viability, HUVEC, Data3 [7] | Average cell viability, HEK293T [8] | Cell viability, HEK293T, Data1 [8] | Cell viability, HEK293T, Data2 [8] | Cell viability, HEK293T, Data3 [8] | Average cell viability, HPNE [9] | also measured |
| --- | --- | --- | --- | --- | --- | --- | --- | --- | --- | --- | --- | --- | --- | --- | --- | --- | --- | --- | --- | --- | --- |
| EPDDPDD [TaPep27] | 0.54 | -6.01 | 7.42 | 3.79 | -0.70 | 14.83 | -22.39 | 8.93 | 3.39 | -6.25 | 1.02 | – | – | – | – | – | – | – | – | – | Average cell viability, HPNE [1]: 91.58; Average cell viability, HEK293T [3]: 98.49; Average cell viability, HUVEC [5]: 94.52; Average cell viability, BEAS-2B [6]: 105.85 |
| YGRGV [TaPep12] | 3.01 | -2.86 | 8.03 | 0.75 | -6.74 | 6.59 | -17.83 | 7.54 | 7.49 | -7.92 | 0.43 | 94.89 | 90.77 | 98.75 | 95.16 | 102.93 | 99.46 | 109.02 | 100.32 | 102.90 | Cell viability, HPNE, Data1 [9]: 110.82; Cell viability, HPNE, Data2 [9]: 91.75; Cell viability, HPNE, Data3 [9]: 106.12; Average cell viability, BEAS-2B [10]: 99.57; Cell viability, BEAS-2B, Data1 [10]: 102.99; Cell viability, BEAS-2B, Data2 [10]: 93.52; Cell viability, BEAS-2B, Data3 [10]: 102.19 |
| KGDEESLA | – | – | – | – | – | – | – | – | – | – | – | – | – | – | – | – | – | – | – | – | taste characteristics [11]: both umami and bitter characteristics |
| YKYHES [TaPep13] | 1.81 | -4.92 | 7.46 | -0.78 | -3.77 | 12.34 | -15.97 | 15.30 | 3.50 | -4.65 | 1.05 | – | – | – | – | – | – | – | – | – | Average cell viability, HPNE [1]: 99.43; Average cell viability, HEK293T [3]: 95.55; Average cell viability, HUVEC [5]: 104.44; Average cell viability, BEAS-2B [6]: 101.89 |
| AQDDLP [TaPep20] | 1.29 | -4.77 | 7.24 | 3.35 | -2.48 | 11.76 | -21.79 | 6.62 | 5.13 | -4.17 | – | 100.19 | 93.96 | 106.73 | 99.87 | 99.56 | 100.69 | 99.18 | 98.80 | 110.18 | Cell viability, HPNE, Data1 [9]: 113.51; Cell viability, HPNE, Data2 [9]: 117.20; Cell viability, HPNE, Data3 [9]: 99.83; Average cell viability, BEAS-2B [10]: 101.76; Cell viability, BEAS-2B, Data1 [10]: 114.06; Cell viability, BEAS-2B, Data2 [10]: 96.91; Cell viability, BEAS-2B, Data3 [10]: 94.32 |
| LNGPQ [TaPep63] | 1.41 | -6.21 | 7.27 | 4.12 | -2.72 | 15.39 | -20.42 | 10.16 | 5.62 | -5.33 | – | 95.61 | 91.41 | 96.35 | 99.07 | 99.12 | 94.35 | 104.86 | 98.14 | 97.14 | Cell viability, HPNE, Data1 [9]: 82.16; Cell viability, HPNE, Data2 [9]: 94.94; Cell viability, HPNE, Data3 [9]: 114.31; Average cell viability, BEAS-2B [10]: 103.52; Cell viability, BEAS-2B, Data1 [10]: 114.46; Cell viability, BEAS-2B, Data2 [10]: 93.02; Cell viability, BEAS-2B, Data3 [10]: 103.09 |

From paper PMC12543283, “TastepepAI: An artificial intelligence platform for taste peptide de novo design” (PLOS Computational Biology, 2025)
